Results on five cell lines are retold here after the supplement of paper PMC10307832.

What all share (assay): relative viability (nuclei count vs DMSO), 5 days (fraction); higher = more cells survive
Compound in the assay “Selumetinib + OSI-027”: Cn1cnc2c(F)c(Nc3ccc(Br)cc3Cl)c(C(=O)NOCCO)cc21 [Selumetinib] + COc1cccc2cc(-c3nc([C@H]4CC[C@H](C(=O)O)CC4)n4ncnc(N)c34)[nH]c12 [OSI-027] (partner 0.5 µM)
The essentials: (§1)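 Relative viability equals treated-well nuclei counts divided by vehicle-well nuclei counts. Counts came from 4× images of lung cancer cell lines grown in 1536-well plates for 5 days after pin-tool dosing on the day after seeding. Dosing used one drug alone or a fixed anchor-drug dose plus five library-drug doses (not always all listed) in √10 steps, and values are medians of duplicate plates.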

Compound in the assay “Venetoclax + Pemetrexed”: CC1(C)CCC(CN2CCN(c3ccc(C(=O)NS(=O)(=O)c4ccc(NCC5CCOCC5)c([N+](=O)[O-])c4)c(Oc4cnc5[nH]ccc5c4)c3)CC2)=C(c2ccc(Cl)cc2)C1 [Venetoclax] + Nc1nc2[nH]cc(CCc3ccc(C(=O)N[C@@H](CCC(=O)O)C(=O)O)cc3)c2c(=O)[nH]1 [Pemetrexed] (partner 0.2 µM)
The essentials: as §1

Compound in the assay “Venetoclax + Crizotinib”: CC1(C)CCC(CN2CCN(c3ccc(C(=O)NS(=O)(=O)c4ccc(NCC5CCOCC5)c([N+](=O)[O-])c4)c(Oc4cnc5[nH]ccc5c4)c3)CC2)=C(c2ccc(Cl)cc2)C1 [Venetoclax] + C[C@@H](Oc1cc(-c2cnn(C3CCNCC3)c2)cnc1N)c1c(Cl)ccc(F)c1Cl [Crizotinib] (partner 1 µM)
In short, it runs like this:
as §1

Compound in the assay “Venetoclax + Luminespib”: CC1(C)CCC(CN2CCN(c3ccc(C(=O)NS(=O)(=O)c4ccc(NCC5CCOCC5)c([N+](=O)[O-])c4)c(Oc4cnc5[nH]ccc5c4)c3)CC2)=C(c2ccc(Cl)cc2)C1 [Venetoclax] + CCNC(=O)c1noc(-c2cc(C(C)C)c(O)cc2O)c1-c1ccc(CN2CCOCC2)cc1 [Luminespib] (partner 0.01 µM)
In short, it runs like this:
as §1

Consider EPLC-272H, for which the relative viability in the assay with Selumetinib + OSI-027 (first compound 0.02 µM) is 0.284; with Selumetinib + OSI-027 (first compound 0.06325 µM) it was 0.259; in the assay with Selumetinib + OSI-027 (first compound 0.2 µM) it was 0.236; in the assay with Selumetinib + OSI-027 (first compound 0.6325 µM) it was 0.183; in the assay with Venetoclax + Pemetrexed (first compound 0.01 µM), 0.361; with Venetoclax + Pemetrexed (first compound 0.03162 µM), 0.316. Also, the relative viability stood at 0.356 with Venetoclax + Pemetrexed (first compound 0.1 µM); 0.412 with Venetoclax + Pemetrexed (first compound 0.3162 µM); 0.36 in the assay with Venetoclax + Pemetrexed (first compound 1 µM); 0.682 with Venetoclax + Crizotinib (first compound 0.03162 µM); 0.872 with Venetoclax + Crizotinib (first compound 0.1 µM); 1.11 in the assay with Venetoclax + Crizotinib (first compound 0.3162 µM). Further, the relative viability with Venetoclax + Crizotinib (first compound 1 µM) was 0.897; in the assay with Venetoclax + Luminespib (first compound 0.01 µM), 0.64; in the assay with Venetoclax + Luminespib (first compound 0.03162 µM), 0.368; in the assay with Venetoclax + Luminespib (first compound 0.1 µM), 0.212; with Venetoclax + Luminespib (first compound 0.3162 µM), 0.171; with Venetoclax + Luminespib (first compound 1 µM) it was 0.367.
Turning to NCI-H358, the relative viability with Selumetinib + OSI-027 (first compound 0.02 µM) is 0.435; in the assay with Selumetinib + OSI-027 (first compound 0.06325 µM), 0.359; with Selumetinib + OSI-027 (first compound 0.2 µM) it was 0.312; with Selumetinib + OSI-027 (first compound 0.6325 µM) it was 0.279; with Venetoclax + Pemetrexed (first compound 0.01 µM), 0.176; with Venetoclax + Pemetrexed (first compound 0.03162 µM) it was 0.176. Further, the relative viability was found to be 0.187 with Venetoclax + Pemetrexed (first compound 0.1 µM); 0.178 in the assay with Venetoclax + Pemetrexed (first compound 0.3162 µM); 0.179 in the assay with Venetoclax + Pemetrexed (first compound 1 µM); 0.577 with Venetoclax + Crizotinib (first compound 0.01 µM); 0.609 with Venetoclax + Crizotinib (first compound 0.03162 µM); 0.581 with Venetoclax + Crizotinib (first compound 0.1 µM). Besides, the relative viability was 0.837 with Venetoclax + Crizotinib (first compound 0.3162 µM); 0.63 with Venetoclax + Crizotinib (first compound 1 µM); 0.402 in the assay with Venetoclax + Luminespib (first compound 0.01 µM); 0.313 with Venetoclax + Luminespib (first compound 0.03162 µM); 0.245 with Venetoclax + Luminespib (first compound 0.1 µM); 0.579 with Venetoclax + Luminespib (first compound 0.3162 µM). Moreover, the relative viability in the assay with Venetoclax + Luminespib (first compound 1 µM) came to 0.321.
Regarding H3255, the relative viability with Selumetinib + OSI-027 (first compound 0.02 µM) stood at 0.511; in the assay with Selumetinib + OSI-027 (first compound 0.06325 µM) it was 0.661; with Selumetinib + OSI-027 (first compound 0.2 µM), 0.582; with Selumetinib + OSI-027 (first compound 0.6325 µM), 0.593; with Venetoclax + Pemetrexed (first compound 0.01 µM) it was 0.584; with Venetoclax + Pemetrexed (first compound 0.03162 µM), 0.615. Further, the relative viability with Venetoclax + Pemetrexed (first compound 0.1 µM) came to 0.526; with Venetoclax + Pemetrexed (first compound 0.3162 µM), 0.603; in the assay with Venetoclax + Pemetrexed (first compound 1 µM) it was 0.562; with Venetoclax + Crizotinib (first compound 0.01 µM), 0.815; in the assay with Venetoclax + Crizotinib (first compound 0.03162 µM), 0.824; with Venetoclax + Crizotinib (first compound 0.1 µM), 0.837. Besides, the relative viability in the assay with Venetoclax + Crizotinib (first compound 0.3162 µM) amounted to 0.773; with Venetoclax + Crizotinib (first compound 1 µM), 1.05; in the assay with Venetoclax + Luminespib (first compound 0.01 µM), 0.915; with Venetoclax + Luminespib (first compound 0.03162 µM), 0.993; with Venetoclax + Luminespib (first compound 0.1 µM), 0.846; with Venetoclax + Luminespib (first compound 0.3162 µM) it was 0.947. The relative viability with Venetoclax + Luminespib (first compound 1 µM) was determined as 0.822.
Take SK-LU-1: the relative viability with Selumetinib + OSI-027 (first compound 0.02 µM) came out at 0.339; in the assay with Selumetinib + OSI-027 (first compound 0.06325 µM) it was 0.331; with Selumetinib + OSI-027 (first compound 0.2 µM) it was 0.357; with Selumetinib + OSI-027 (first compound 0.6325 µM), 0.208; in the assay with Venetoclax + Pemetrexed (first compound 0.01 µM) it was 0.97; with Venetoclax + Pemetrexed (first compound 0.03162 µM), 1.05. In addition, the relative viability with Venetoclax + Pemetrexed (first compound 0.1 µM) turned out to be 1.03; with Venetoclax + Pemetrexed (first compound 0.3162 µM) it was 0.966; in the assay with Venetoclax + Pemetrexed (first compound 1 µM), 0.867; with Venetoclax + Crizotinib (first compound 0.01 µM) it was 0.814; with Venetoclax + Crizotinib (first compound 0.03162 µM) it was 0.972; in the assay with Venetoclax + Crizotinib (first compound 0.1 µM), 0.763. Moreover, the relative viability turned out to be 0.983 in the assay with Venetoclax + Crizotinib (first compound 0.3162 µM); 0.849 in the assay with Venetoclax + Crizotinib (first compound 1 µM); 0.188 with Venetoclax + Luminespib (first compound 0.01 µM); 0.21 with Venetoclax + Luminespib (first compound 0.03162 µM); 0.197 with Venetoclax + Luminespib (first compound 0.1 µM); 0.198 with Venetoclax + Luminespib (first compound 0.3162 µM). The relative viability with Venetoclax + Luminespib (first compound 1 µM) is 0.197.
In the case of PC-3 [JPC-3], the relative viability with Selumetinib + OSI-027 (first compound 0.02 µM) came out at 0.712; in the assay with Selumetinib + OSI-027 (first compound 0.06325 µM), 0.752; in the assay with Selumetinib + OSI-027 (first compound 0.2 µM), 0.749; in the assay with Selumetinib + OSI-027 (first compound 0.6325 µM), 0.787; with Venetoclax + Pemetrexed (first compound 0.01 µM), 1.05; with Venetoclax + Pemetrexed (first compound 0.03162 µM), 1.45. In addition, the relative viability with Venetoclax + Pemetrexed (first compound 0.1 µM) came to 1.18; with Venetoclax + Pemetrexed (first compound 0.3162 µM), 1.26; in the assay with Venetoclax + Pemetrexed (first compound 1 µM), 1.01; in the assay with Venetoclax + Crizotinib (first compound 0.01 µM), 0.896; with Venetoclax + Crizotinib (first compound 0.03162 µM), 0.987; with Venetoclax + Crizotinib (first compound 0.1 µM), 1.04. The relative viability in the assay with Venetoclax + Crizotinib (first compound 0.3162 µM) is 0.965; with Venetoclax + Crizotinib (first compound 1 µM) it was 0.969; with Venetoclax + Luminespib (first compound 0.01 µM) it was 0.673; in the assay with Venetoclax + Luminespib (first compound 0.03162 µM), 0.661; with Venetoclax + Luminespib (first compound 0.1 µM), 0.667; with Venetoclax + Luminespib (first compound 0.3162 µM), 0.688. The relative viability with Venetoclax + Luminespib (first compound 1 µM) was determined as 0.668.
